{"source": "patent US20170165286A1", "about": "“COMPOSITIONS AND METHODS FOR TREATING DIABETES AND LIVER DISEASES” (Cempra Pharmaceuticals, Inc., priority 2014, published 2017)", "key": {"[1]": {"assay": "Absorption, metabolism and excretion of orally administered solithromycin", "type": "in vivo", "conditions": "oral", "description": "Macrolide antibiotics, like solithromycin, are primarily metabolized and excreted through liver-dependent mechanisms; this study evaluated the safety and PK of solithromycin in patients with chronic liver disease. It has been observed that approximately 78% of orally administered solithromycin is absorbed. Less than 15% unchanged solithromycin is excreted in the feces. It has also been observed that ˜70% of orally administered solithromycin is metabolized and excreted by the liver. Accordingly, high liver concentrations are observed. No dosage adjustment is needed when administering solithromycin to patients with mild, moderate, or severe hepatic impairment."}, "[2]": {"test_system": "STAM mice", "assay": "STAM model: serum biochemistry (HPLC)", "type": "in vivo", "protocol": "NASH-HCC (STAM™) Model. C57BL/6 (15-day-pregnant female) mice are obtained from Charles River Laboratories Japan (Kanagawa, Japan). Male pups are selected for the study. NASH is induced in male mice by a single subcutaneous injection of 200 μg streptozotocin (STZ, Sigma-Aldrich, USA) solution 2 days after birth, followed by feeding a HFD (57 kcal % fat, cat#: HFD32, CLEA Japan, Japan) beginning at 4 weeks of age. At 5 weeks of age, mice are divided into a control group and one or more treated group (generally 8 mice per group). Animals are sacrificed at 9 weeks of age, and biochemical, histological, and gene expression analyses are performed.\nDuring weeks 5-9 (starting at day 35±2), test compound is administered (generally orally) at various doses diluted to 10 mL/kg and according to various dosing protocols to treatment groups (8 mice each) while a second group (8 mice) is administered vehicle only. Animals are sacrificed at 9 weeks.\nMeasurement of serum biochemistry. For serum biochemistry, blood is collected in polypropylene tubes without anticoagulant and incubated at room temperature for 30 minutes, at 4° C. for 1 hour, and then centrifuged at 1,000×g for 15 minutes at 4° C. The supernatant is collected and stored at −80° C. until use. Serum triglyceride, HDL-cholesterol, LDL-cholesterol, VLDL-cholesterol, and chylomicron ([…]) are quantified by HPLC at Skylight Biotech Inc. (Japan).\nIllustrative dose response test groups. Group 1-Normal. Eight normal mice are fed with a normal diet ad libitum without any treatment until 9 weeks of age. Group 2-Vehicle. Eight NASH mice are orally administered vehicle (0.5% w/v methylcellulose+0.2% Tween®80) in a volume of 10 mL/kg twice daily from 5 to 9 week of age. Group 3-solithromycin 5 mg/kg. Eight NASH mice are orally administered vehicle supplemented with solithromycin at a dose of 5 mg/kg in the morning and the vehicle in the evening (5 mg/kg/day) from 5 to 9 weeks of age. Group 4-solithromycin 10 mg/kg. Eight NASH mice are orally administered vehicle supplemented with solithromycin at a dose of 10 mg/kg twice daily (20 mg/kg/day) from 5 to 9 weeks of age. Group 5-solithromycin 25 mg/kg. Eight NASH mice are orally administered vehicle supplemented with solithromycin at a dose of 25 mg/kg twice daily (50 mg/kg/day) from 5 to 9 weeks of age. Group 6-solithromycin 50 mg/kg. Eight NASH mice are orally administered vehicle supplemented with solithromycin at a dose of 50 mg/kg once daily (50 mg/kg/day) from 5 to 9 weeks of age."}, "[3]": {"conditions": "5 mg/kg q.d., listed as SOLI, 5 mg/kg"}, "[4]": {"conditions": "10 mg/kg b.i.d., listed as SOLI, 10 mg/kg"}, "[5]": {"conditions": "25 mg/kg b.i.d., listed as SOLI, 25 mg/kg"}}, "note": "“Also recorded” adds a separate entry of the source.", "data": [{"smiles": "CC[C@H]1OC(=O)[C@@](C)(F)C(=O)[C@H](C)[C@@H](O[C@@H]2O[C@H](C)C[C@H](N(C)C)[C@H]2O)[C@](C)(OC)C[C@@H](C)C(=O)[C@H](C)[C@H]2N(CCCCn3cc(-c4cccc(N)c4)nn3)C(=O)O[C@]12C", "note": "[solithromycin]", "values": [{"measurement": "Fraction of orally administered dose absorbed", "setting": "[1]", "result": "approximately 78%"}, {"measurement": "Fraction of orally administered dose metabolized and excreted by the liver", "setting": "[1]", "result": "~70", "unit": "%"}, {"measurement": "Unchanged drug excreted in the feces", "setting": "[1]", "result": "Less than 15%"}, {"measurement": "Serum HDL-cholesterol", "setting": "[2]; 5 mg/kg q.d., 5 mg/kg", "result": "no statistically significant differences"}, {"measurement": "Serum VLDL-cholesterol", "setting": "[2]; 5 mg/kg q.d., 5 mg/kg", "result": "no statistically significant differences"}, {"measurement": "Serum chylomicron", "setting": "[2]; 5 mg/kg q.d., 5 mg/kg", "result": "no statistically significant differences"}, {"measurement": "Serum triglyceride", "setting": "[2]; 5 mg/kg q.d., 5 mg/kg", "result": "no statistically significant differences"}, {"measurement": "Serum HDL-cholesterol", "setting": "[2]; [3]", "result": "88.4 ± 14.2", "unit": "mg/dL"}, {"measurement": "Serum VLDL-cholesterol", "setting": "[2]; [3]", "result": "9.8 ± 5.3", "unit": "mg/dL"}, {"measurement": "Serum chylomicron", "setting": "[2]; [3]", "result": "1.5 ± 1.2", "unit": "mg/dL"}, {"measurement": "Serum triglyceride", "setting": "[2]; [3]", "result": "133.8 ± 110.1", "unit": "mg/dL"}, {"measurement": "Serum HDL-cholesterol", "setting": "[2]; 10 mg/kg b.i.d., 10 mg/kg", "result": "no statistically significant differences"}, {"measurement": "Serum VLDL-cholesterol", "setting": "[2]; 10 mg/kg b.i.d., 10 mg/kg", "result": "no statistically significant differences"}, {"measurement": "Serum chylomicron", "setting": "[2]; 10 mg/kg b.i.d., 10 mg/kg", "result": "no statistically significant differences"}, {"measurement": "Serum triglyceride", "setting": "[2]; 10 mg/kg b.i.d., 10 mg/kg", "result": "no statistically significant differences"}, {"measurement": "Serum HDL-cholesterol", "setting": "[2]; [4]", "result": "89.3 ± 21.5", "unit": "mg/dL"}, {"measurement": "Serum VLDL-cholesterol", "setting": "[2]; [4]", "result": "9.7 ± 3.8", "unit": "mg/dL"}, {"measurement": "Serum chylomicron", "setting": "[2]; [4]", "result": "1.4 ± 0.6", "unit": "mg/dL"}, {"measurement": "Serum triglyceride", "setting": "[2]; [4]", "result": "116.5 ± 58.8", "unit": "mg/dL"}, {"measurement": "Serum HDL-cholesterol", "setting": "[2]; 25 mg/kg b.i.d., 25 mg/kg", "result": "no statistically significant differences"}, {"measurement": "Serum VLDL-cholesterol", "setting": "[2]; 25 mg/kg b.i.d., 25 mg/kg", "result": "significantly decreased; also recorded: Statistically significant reduced"}, {"measurement": "Serum chylomicron", "setting": "[2]; 25 mg/kg b.i.d., 25 mg/kg", "result": "significantly decreased"}, {"measurement": "Serum triglyceride", "setting": "[2]; 25 mg/kg b.i.d., 25 mg/kg", "result": "significantly decreased; also recorded: Statistically significant reduced"}, {"measurement": "Serum HDL-cholesterol", "setting": "[2]; [5]", "result": "97.9 ± 26.3", "unit": "mg/dL"}, {"measurement": "Serum VLDL-cholesterol", "setting": "[2]; [5]", "result": "5.4 ± 3.2", "unit": "mg/dL"}, {"measurement": "Serum chylomicron", "setting": "[2]; [5]", "result": "0.7 ± 0.4", "unit": "mg/dL"}, {"measurement": "Serum triglyceride", "setting": "[2]; [5]", "result": "46.8 ± 47.8", "unit": "mg/dL"}]}]}
